# Results from patent US12329149B2, “Apparatus and methods for irradiating organ perfusates” (University Health Network, priority 2017, dated 2025).
# Key:
# HCV JFH-1 strain = assay: Mini-EVLP circuit spiked with HCV JFH-1, infectivity loss in Huh 7.5.1 hepatocyte culture
# HCV = assay: EVLP of HCV+ human donor lungs with light therapy, viral load by RealTime PCR
# Experimental: (§1) Human Lung Studies: effect of EVLP and light therapies into HCV titers: In order to evaluate the effect of EVLP itself and also as a platform for light-based therapies against HCV titers in the lung tissue and perfusate solution, 9 rejected human lungs from NAT+ HCV donors. Donor lungs were recovered using standard protocols and flushed with cold Low-Potassium Dextran (LPD) solution and preserved at 4° C. as routine clinical practice. Following the pre-EVLP flush, the lungs were placed in 2 independent EVLP circuits for 9 hours. One lung was the control group (standard EVLP protocol, (n=9), whereas the other lung was randomly subjected to different treatment conditions (n=3, each) (FIG. 13A): (1) Intense lung wash (replacement of perfusate solution and circuit after 3 h of EVLP); (2) Ultra Violet C (UVC) light (260 nm, 4 W) applied to EVLP perfusate; (3) Photodynamic Therapy (PDT), using Methylene Blue (MB) diluted in the perfusion solution (1 umol/L) associated with red light irradiation (630 nm, 20 mW/cm^2). The advantage of such design is that both control and treated lungs come from the same donor (same virus load as baseline). Tissue biopsies were collected from lower, and upper lobes of the lungs at baseline and every 3 h during perfusion and perfusate samples were collected hourly. All samples were assessed for viral load quantification using RealTime PCR assay. The results were normalized for percentage of viral load decrease. To translate the application of light therapies to an EVLP system, a specific device suitable to be inserted inline in the EVLP circuit where different light wavelengths could be applied to treat the perfusion solution.
# [1] = Pre-clinical large animal lung transplant safety model (EVLP 6 h, left lung transplant, 4 h reperfusion); type: in vivo, Yorkshire male domestic pigs; conditions: PDT MB 1 umol/L + red light vs control and UVC
# Experimental: In order to translate such approach to the clinical EVLP setting, the safety of applying UVC and PDT during EVLP was assessed using a pre-clinical large animal transplant model (FIG. 15D).
# In this model, Yorkshire male domestic pigs (30-35 kg) were used, under anesthesia and mechanic ventilation. After lung withdrawal, lungs were preserved for 2 hours at 4° C., followed by EVLP for 6 hours. During EVLP, pig lungs were randomized for three groups (n=4, each): (1) Control (standard EVLP technique); (2) Ultra Violet C; (3) Photodynamic Therapy (PDT), using Methylene Blue (MB) diluted in the perfusion solution (1 umol/L) associated with red light irradiation. During EVLP, lung physiology was assessed (pulmonary vascular resistance, pulmonary artery pressure, left atrium (venous) pressure, peak airway pressure, plateau pressure, dynamic compliance, static compliance and gas exchange function-PO2); There was no difference in ex vivo lung function during 6 hours amongst the groups. After EVLP, the left lung was transplanted followed by 4 hours of reperfusion. Post-transplant blood gas samples were collected of the transplanted graft upper and lower pulmonary veins and the average of the partial pressure of arterial oxygen (PaO2)/fraction of inspired oxygen (FiO2) was calculated.
# [2] = Ex vivo lung function during 9 hours of EVLP of human donor lungs; conditions: PDT (MB 1 umol/L + red light) applied to circuit, 9 hours EVLP
# Experimental: as §1, with “The results were normalized for percentage of viral load decrease. To translate the application of light therapies to an EVLP system, a specific device suitable to be inserted inline in the EVLP circuit where different light wavelengths could be applied to treat the perfusion solution.” left out
# [3] = test system: Staphylococcus aureus, Stenotrophomonas maltophilia, and Pseudomonas aeruginosa; conditions: antibiotic 333 mg/L, LB Agar plates, UVC group 0
# Experimental: Methods: A mixture of low-potassium-dextran lung perfusion solution and Lysogeny Broth (LB) media was spiked with 1,0×10^5 CFU/mL of Staphylococcus aureus, Stenotrophomonas maltophilia, and Pseudomonas aeruginosa. A mini EVLP and UVC irradiator was used (FIG. 7). After priming, the circuits were divided into three groups (n=4, each) and evaluated for 180 minutes: 1) Control (no treatment); 2) UVC (236 nm, 9 J/cm^2) and 3) Antibiotic (Imipenem/Cilastatin, 333 mg/L). Samples were taken at different timepoints and analysed, using LB Agar culture plates and bacterial DNA qPCR assay.
Compound,"perfusion time after which no infectivity was observed (HCV JFH-1 strain; PDT group, red light 630 nm, 20 mW/cm^2, JFH-1 1.5×10^6 copies/mL, 37° C.)",effect on HCV infectivity with ambient (room) light activation compared with red light (HCV JFH-1 strain; regular room light instead of red light),"decrease of HCV titers in human donor lungs (HCV; PDT using MB as photosensitizer, summary statement)","HCV titers in lung tissue, % reduction (HCV; PDT: methylene blue 1 umol/L + red light 630 nm, 20 mW/cm^2, 9 h EVLP, lung tissue, control 75.46%)","perfusate HCV titres (% reduction from baseline) (HCV; PDT: methylene blue 1 umol/L + red light 630 nm/20 mW/cm^2, 9 h EVLP, perfusate, control 69.49%)","post-transplant PaO2/FiO2 after 4 h of reperfusion, among the groups ([1]; pig left lung transplant)",ex vivo lung function during 6 hours EVLP amongst the groups ([1]; pig lungs),"ex vivo lung function during EVLP (delta P/F ratio, peak airway pressure, dynamic compliance) vs control lung [2]",bacterial growth after 180 minutes of treatment [3]
CN(C)c1ccc2nc3ccc(=[N+](C)C)cc-3sc2c1 [Methylene blue],15 min,weaker than with red light,98%,90.96%,97.87%,no significant difference,no difference,no significant difference,–
Imipenem/Cilastatin,–,–,–,–,–,–,–,–,15±2.3 colonies/plate
